From ChEMBL document CHEMBL5352406 (Eur J Med Chem, 2022) come the findings set out here.

Experiment [1] deals with CDK2/Cyclin A2 (Homo sapiens) (UniProt P24941+P20248). The experiment is described as follows: Inhibition of human full length CDK2/CyclinA2 at 500 nM by ADP-Glo kinase assay relative to control. Type of experiment: protein-complex assay. For orientation: ADP-Glo first removes unused ATP, then detects ADP through luciferase.
The target in experiment [2] is Acetylcholinesterase (Electrophorus electricus, UniProt O42275). The experiment in a line: Inhibition of electric eel AChE using acetylthiocholine […] as substrate for 20 mins by Ellman's method. For orientation: DTNB colorimetry detects thiols as they appear.
Acetylcholinesterase, sequence (O42275 whole entry): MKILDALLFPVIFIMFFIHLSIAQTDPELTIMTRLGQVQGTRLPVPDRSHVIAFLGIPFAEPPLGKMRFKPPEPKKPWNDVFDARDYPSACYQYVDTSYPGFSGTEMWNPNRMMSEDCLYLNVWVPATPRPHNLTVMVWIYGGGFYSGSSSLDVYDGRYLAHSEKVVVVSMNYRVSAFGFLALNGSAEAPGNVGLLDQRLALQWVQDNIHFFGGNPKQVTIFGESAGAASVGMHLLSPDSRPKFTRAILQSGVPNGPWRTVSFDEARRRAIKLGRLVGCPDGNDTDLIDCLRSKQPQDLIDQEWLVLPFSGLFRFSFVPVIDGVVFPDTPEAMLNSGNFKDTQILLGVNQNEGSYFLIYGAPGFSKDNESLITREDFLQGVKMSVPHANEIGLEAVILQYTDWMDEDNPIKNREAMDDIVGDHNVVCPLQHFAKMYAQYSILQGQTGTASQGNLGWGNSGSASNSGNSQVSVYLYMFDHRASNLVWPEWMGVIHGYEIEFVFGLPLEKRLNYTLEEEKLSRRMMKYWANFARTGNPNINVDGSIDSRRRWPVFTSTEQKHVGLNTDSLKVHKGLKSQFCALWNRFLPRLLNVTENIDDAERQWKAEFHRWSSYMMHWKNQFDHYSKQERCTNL
In experiment [3] the test system is SW480. The experiment is described as follows: Antiproliferative activity against human SW480 cells assessed as cell growth inhibition after 72 hrs by MTT assay. Type of experiment: functional. Background: Tetrazolium assays rely on reduction of a dye to a coloured formazan, in cell work by metabolically active cells.
The subject of experiment [4] is HCT-116. The experiment is described as follows: Antiproliferative activity against human HCT-116 cells assessed as cell growth inhibition after 72 hrs by MTT assay. In kind it is functional.
Experiment [5] concerns the target Cholinesterase (Equus caballus, UniProt P81908). The experiment in a line: Inhibition of equine serum BuChE using […] as substrate for 20 mins by Ellman's method.
Experiment [6] deals with A549. The experiment in a line: Antiproliferative activity against human A549 cells assessed as cell growth inhibition after 72 hrs by MTT assay. Type of experiment: functional.
For experiment [7], the target named is CDK9/cyclin T1 (Homo sapiens) (UniProt O60563+P50750). The experiment is described as follows: Inhibition of CDK9/CyclinT1 (unknown origin) at 500 nM by ADP-Glo kinase assay relative to control. In kind it is protein-complex assay.
Experiment [8] concerns MCF7. The experiment in a line: Antiproliferative activity against human MCF7 cells assessed as cell growth inhibition after 72 hrs by MTT assay. In kind it is functional.
The target in experiment [9] is CDK2/Cyclin A2 (Homo sapiens, UniProt P24941). Type of experiment: protein-complex assay.
Description: Inhibition of human full length CDK2/CyclinA2 by ADP-Glo kinase assay
Experiment [10] concerns HCT-116. The experiment is described as follows: Induction of apoptosis in human HCT-116 cells assessed as early apoptotic cells at 10 nM measured after 48 hrs by Annexin V-FITC/PI assay (reference value: 3.16%). Type of experiment: functional.
In experiment [11] the test system is HCT-116. The experiment is described as follows: Cell cycle arrest in human HCT-116 cells assessed as accumulation of cells at […] phase at 10 nM measured after 48 hrs by flow cytometry (reference value: 6.39%). Type of experiment: functional.
In experiment [12] the test system is HCT-116. The experiment is described as follows: Cell cycle arrest in human HCT-116 cells assessed as accumulation of cells at G0-G1 phase at 10 nM measured after 48 hrs by flow cytometry (reference value: 62.18%). In kind it is functional.
Experiment [13] has as its system HCT-116. The experiment in a line: Cell cycle arrest in human HCT-116 cells assessed as accumulation of cells at S phase at 10 nM measured after 48 hrs by flow cytometry (reference value: 31.43%). Type of experiment: functional.
Experiment [14] concerns HCT-116. The experiment in a line: Induction of apoptosis in human HCT-116 cells assessed as late apoptotic cells at 10 nM measured after 48 hrs by Annexin V-FITC/PI assay (reference value: 6.06%). Type of experiment: functional.
In experiment [15] the test system is HCT-116. The experiment is described as follows: Induction of apoptosis in human HCT-116 cells assessed as viable cells at 10 nM measured after 48 hrs by Annexin V-FITC/PI assay (reference value: 88.5%). Type of experiment: functional. As to conditions: read-out: Activity.
In experiment [16] the test system is HCT-116. The experiment is described as follows: Induction of apoptosis in human HCT-116 cells assessed as necrotic cells at 10 nM measured after 48 hrs by Annexin V-FITC/PI assay (reference value: 2.31%). Type of experiment: functional.
The target of experiment [17] is CDK9/cyclin T1 (Homo sapiens, UniProt P50750).
CDK9/cyclin T1, sequence (O60563 whole entry): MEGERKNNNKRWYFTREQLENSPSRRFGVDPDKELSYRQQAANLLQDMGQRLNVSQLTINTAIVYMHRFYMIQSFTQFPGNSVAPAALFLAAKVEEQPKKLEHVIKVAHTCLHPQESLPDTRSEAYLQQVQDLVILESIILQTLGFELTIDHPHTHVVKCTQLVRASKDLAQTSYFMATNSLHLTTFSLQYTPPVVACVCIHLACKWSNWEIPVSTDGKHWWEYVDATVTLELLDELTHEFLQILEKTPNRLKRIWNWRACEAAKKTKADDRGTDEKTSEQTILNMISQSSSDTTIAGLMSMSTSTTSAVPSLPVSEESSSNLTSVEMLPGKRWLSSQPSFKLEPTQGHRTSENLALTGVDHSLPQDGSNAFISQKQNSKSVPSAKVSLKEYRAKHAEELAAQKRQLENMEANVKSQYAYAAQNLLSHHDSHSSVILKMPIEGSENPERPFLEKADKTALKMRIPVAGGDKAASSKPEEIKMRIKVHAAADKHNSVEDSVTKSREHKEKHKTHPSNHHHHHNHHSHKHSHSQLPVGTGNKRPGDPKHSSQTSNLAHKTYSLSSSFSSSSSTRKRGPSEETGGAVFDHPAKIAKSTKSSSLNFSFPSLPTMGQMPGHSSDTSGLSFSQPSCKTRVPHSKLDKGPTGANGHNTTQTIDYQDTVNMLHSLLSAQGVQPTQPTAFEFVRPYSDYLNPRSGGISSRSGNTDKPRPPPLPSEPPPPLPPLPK
CDK9/cyclin T1, sequence (P50750 whole entry): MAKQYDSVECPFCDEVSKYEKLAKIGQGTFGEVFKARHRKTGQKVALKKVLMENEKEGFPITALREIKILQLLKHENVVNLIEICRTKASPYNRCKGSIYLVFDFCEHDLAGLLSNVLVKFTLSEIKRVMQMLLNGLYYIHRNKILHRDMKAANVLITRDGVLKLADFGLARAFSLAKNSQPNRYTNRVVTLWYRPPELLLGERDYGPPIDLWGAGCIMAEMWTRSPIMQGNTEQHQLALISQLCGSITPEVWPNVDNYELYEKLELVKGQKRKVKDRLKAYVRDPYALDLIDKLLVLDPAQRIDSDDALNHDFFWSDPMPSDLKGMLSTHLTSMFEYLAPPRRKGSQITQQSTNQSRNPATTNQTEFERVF
Description: Inhibition of CDK9/CyclinT1 (unknown origin) by ADP-Glo kinase assay

Cholinesterase, sequence (P81908 whole entry): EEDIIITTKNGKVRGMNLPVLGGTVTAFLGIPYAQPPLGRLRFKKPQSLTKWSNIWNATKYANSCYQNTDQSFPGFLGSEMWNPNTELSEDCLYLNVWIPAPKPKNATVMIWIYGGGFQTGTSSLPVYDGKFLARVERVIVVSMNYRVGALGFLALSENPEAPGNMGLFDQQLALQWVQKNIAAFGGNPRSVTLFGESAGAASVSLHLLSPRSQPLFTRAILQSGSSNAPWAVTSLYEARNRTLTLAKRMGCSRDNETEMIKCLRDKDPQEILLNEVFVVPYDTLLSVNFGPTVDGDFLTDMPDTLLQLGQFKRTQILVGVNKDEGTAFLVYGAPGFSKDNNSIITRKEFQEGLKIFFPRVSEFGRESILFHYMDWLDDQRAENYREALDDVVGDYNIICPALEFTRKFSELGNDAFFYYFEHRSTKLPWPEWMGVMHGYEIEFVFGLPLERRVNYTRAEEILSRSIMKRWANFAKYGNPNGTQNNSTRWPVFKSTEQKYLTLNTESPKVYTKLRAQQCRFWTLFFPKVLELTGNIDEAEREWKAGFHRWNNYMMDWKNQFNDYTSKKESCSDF

For `N[C@H]1CCN(c2c3c(nc4ccc(-c5ccnc(Nc6ccc(S(=O)(=O)N7CCOCC7)cc6)c5)cc24)CCCCC3)C1`, the inhibition turned out to be 89.5% in experiment [1] and 62.4% in experiment [7]. Moreover, the results for the IC50 in experiment [2] and in experiment [5] were 24.9 µM and 1.82 µM, respectively. The GI50 in experiment [3] is 3.68 µM; in [4], 2.26 µM; in [6], 2.61 µM; in experiment [8], 3.18 µM.
As to `CS(=O)(=O)c1ccc(Nc2cc(-c3ccc4nc5c(c(N6CC[C@H](N)C6)c4c3)CCCCC5)ccn2)cc1`, the inhibition in experiment [1] worked out at 90.1%; in [7], 80.2%. Moreover, the IC50 is 24.2 µM in experiment [2] and 3.05 µM in experiment [5]. The GI50 in [3] was 3.52 µM; in experiment [4] it was 3.01 µM; in experiment [6], 2.78 µM; in experiment [8], 3.16 µM.
For `N[C@H]1CCN(c2c3c(nc4ccc(-c5ccnc(Nc6cccc(S(=O)(=O)N7CCOCC7)c6)c5)cc24)CCCCC3)C1`, the results for the IC50 in experiment [2], in [5] and in [9] were 28.5 µM, 1.98 µM and more than 0.5 µM, respectively. Also, the GI50 in experiment [3] stood at 3.2 µM; in experiment [4] it was 2 µM; in experiment [6] it was 3.3 µM; in experiment [8], 3.44 µM. Moreover, the inhibition in experiment [7] was 57.5%.
As to `CCc1cnn2c(NCc3ccc[n+]([O-])c3)cc(N3CCCC[C@H]3CCO)nc12` [DINACICLIB], the Activity was 33.2% in [10]; 10.05% in experiment [11]; 45.02% in [12]; 44.93% in [13]; approximately 10.4% in experiment [14]; 1.14% in experiment [16]. Further, the GI50 in experiment [3] is 0.008 µM; in experiment [4] it was 0.009 µM; in experiment [6], 0.006 µM; in [8], 0.012 µM. The viability at 0.01 µM in experiment [15] amounted to 55.3%.
On to `N[C@H]1CCN(c2c3c(nc4ccc(-c5ccnc(Nc6ccc(S(=O)(=O)N7CCCC7)cc6)c5)cc24)CCCCC3)C1`, for which the inhibition in [1] stood at 74.8%. Moreover, the IC50 in experiment [2] is more than 50 µM; in [17], more than 0.5 µM; in experiment [5] it was 4.96 µM. Further, the GI50 is 3.52 µM in experiment [3], 6.02 µM in experiment [4], 2.69 µM in experiment [6] and 3.24 µM in experiment [8].
Turning to `N[C@H]1CCN(c2c3c(nc4ccc(-c5ccnc(F)c5)cc24)CCCCC3)C1`, the 50% inhibitory concentration (IC50) in experiment [2] was 21.4 µM; in experiment [5] it was 2.25 µM; in experiment [9] it was more than 0.5 µM. In addition, the GI50 in experiment [3] was 4.69 µM; in experiment [4] it was 3.98 µM; in [6], 8.44 µM; in experiment [8], 7.08 µM. Moreover, the inhibition in experiment [7] came out at 73%.
Turning to `N[C@H]1CCN(c2c3c(nc4ccc(-c5ccnc(Nc6ccc(S(=O)(=O)N7CCNCC7)cc6)c5)cc24)CCCCC3)C1`, the inhibition in [1] worked out at 84%. Further, the concentration for half-maximal inhibition (IC50) was 19.5 µM in experiment [2], more than 0.5 µM in [17] and 2.82 µM in experiment [5]. The GI50 in [3] turned out to be 7.8 µM; in experiment [4] it was 5.83 µM; in [6] it was 7.53 µM; in experiment [8], 11.6 µM.
For `CN1CCN(S(=O)(=O)c2ccc(Nc3cc(-c4ccc5nc6c(c(N7CC[C@H](N)C7)c5c4)CCCCC6)ccn3)cc2)CC1`, the inhibition in experiment [1] worked out at 85%; in experiment [7], 57.2%. For the same compound, the values for the IC50 in experiment [2] and in experiment [5] were 24.2 µM and 4.38 µM, respectively. The GI50 in experiment [3] was found to be 3.23 µM; in [4] it was 2 µM; in experiment [6], 3.21 µM; in [8], 2.73 µM.

Broadly, the inhibition is the relative decrease from the control value, in per cent. The IC50 is the concentration that inhibits the measured activity by half. One may read the GI50 as the concentration that inhibits growth by half.
